{
  "source": "patent US20150158931A1",
  "about": "“CYSTEINE PROTEASE CAPTURING AGENTS” (Stichting Het Nederlands Kanker Instituut, priority 2012, published 2015)",
  "key": {"DUBs in cell lysates": {"tested_on": "DUBs in cell lysates", "assay": "Labeling of active DUBs in cell lysates at endogenous levels with fluorescent probe", "format": "binding", "conditions": "fluorescence"}, "[1]": {"tested_on": "GFP-DUB fusions (catalytic cysteine to serine mutants)", "assay": "Labeling of overexpressed GFP-DUB fusions in cell lysates", "format": "binding", "conditions": "transfected cells, lysate", "protocol": "For overexpression of GFP-tagged DUBs in cells, wild type USP14, Otub1, Otub2, Otud1 and POH1 were subcloned from pDEST-cDNA constructs (Addgene) into the eGFP-C1 vector system (Clontech) at XhoI/EcoRI restriction sites. Mutagenesis of catalytic Cysteines was performed by standard protocols (Stratagene) using the following primers (sites of mutagenesis underlined): USP14-C114S forward-CTTGGTAACACTTCTTACATGAATGCC, reverse-GGCATTCATGTAAGAAGTGTTACCAAG; Otub1-C9/S forward-CCTGACGGCAACTCTTTCTATCGGGC, reverse-GC CCGATAGAAAGAGTTGCCGTCAGG; Otub2-C51S forward-GG GATGGGAACTCCTTCTACAGGGCC, reverse-GGCCCTGTAGAAGGAGTTCCCATCCC. […] Reactions were stopped by the addition sample loading buffer supplemented with (β-mercaptoethanol, followed by boiling for 10 min. Samples were resolved on 4-12% MOPS NU-PAGE Gels (Invitrogen) and probe reactivity was assessed by TAMRA fluorescence scanning as described above. Gels were then transferred onto Nitrocellulose membranes and immunoblotted using anti-GFP serum produced in rabbit and mouse anti-β-actin (Sigma-Aldrich). Immunoblots were visualized using a Licor Odyssey. The following fluorescent secondary antibodies purchased from LICOR were used: anti-mouse-680, anti-rabbit-800."}, "[2]": {"tested_on": "SENPs (GST-SENP1, SENP6, SENP7)", "assay": "Labeling of SENPs with SUMO-PRG peptides (SDS-PAGE, fluorescence)", "format": "binding, human", "conditions": "for selective capturing / binding of SENPs: SENPs 1 μM, peptides 50 μM, 1 hour at RT; for binding to SENPs denatured prior to addition of the peptides: hydrolases denatured (1x LB, 5 min boiling) before peptide", "protocol": "The following experiment was performed to confirm that propargyl modified SUMO peptide (fragments) in accordance with the invention are selective capturing agent for the corresponding SENPs. The following SUMO peptides and SENPs were used in the Experiment. • SUMO peptides: • SUMO1=Cy5-PEG4-YQEQTG-PRG • SUMO2,3=Cy5-PEG4-FQQQTG-PRG • SENPs: • GST-SENP1 (43 kDa) • SENP6 (33.1 kDa) • SENP7 (37.2 kDa)\nThe SENPs (1 μM final concentration) were incubated with the SUMO-PRG peptides (50 μM final concentrations) for 1 hour at RT in buffer (20 mM Tris, 100 mM NaCl, 1 mM DTT, pH 7.5). Samples were denatured using 1× LB and boiled for 5 min. As a control, the SENPs were denatured (1×LB and 5 min. boiling) prior to treatment with the SUMO-PRG peptides. Samples were resolved by SDS-PAGE (12% polyacryl amide, MES buffer) and proteins were visualized by fluorescence (λex,em=625,680 nm) and CBB staining."}, "UCH-L3 [3]": {"molecular_target": "T1, UCH-L3 (Homo sapiens, UniProt P15374)", "T1 construct": "made in house", "T1 sequence (P15374 1-230)": "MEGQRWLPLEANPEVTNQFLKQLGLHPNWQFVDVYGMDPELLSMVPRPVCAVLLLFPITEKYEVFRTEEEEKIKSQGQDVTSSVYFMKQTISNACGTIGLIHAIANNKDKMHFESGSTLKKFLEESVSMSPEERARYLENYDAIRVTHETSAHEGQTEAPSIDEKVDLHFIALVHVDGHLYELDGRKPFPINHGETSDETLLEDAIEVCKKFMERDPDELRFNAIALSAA", "assay": "Reaction between Ubiquitin75-propargylamide and UCH-L3 (LC-MS, SDS-PAGE)", "format": "binding", "protocol": "Recombinant UCH-L3 was expressed and purified as described previously (C. N. Larsen, J. S. Price, K. D. Wilkinson, Biochemistry 35, 6735 (1996)).\n(§1) General procedure: DUB was dissolved in PBS with 5 mM dithiothreitol to a concentration of 1 mg/mL."}, "cysteine protease DUBs": {"tested_on": "cysteine protease DUBs", "assay": "Reaction between Ubiquitin75-propargylamide and DUBs, in vitro labeling", "format": "binding", "conditions": "including OTU-domain containing DUBs", "protocol": "as §1"}, "papain": {"molecular_target": "T2, papain (Carica papaya, UniProt P00784)", "T2 construct": "papain, a general cysteine protease obtained from Papaya Latex; from tissue; host or cells: papaya latex", "T2 sequence (P00784 134-345)": "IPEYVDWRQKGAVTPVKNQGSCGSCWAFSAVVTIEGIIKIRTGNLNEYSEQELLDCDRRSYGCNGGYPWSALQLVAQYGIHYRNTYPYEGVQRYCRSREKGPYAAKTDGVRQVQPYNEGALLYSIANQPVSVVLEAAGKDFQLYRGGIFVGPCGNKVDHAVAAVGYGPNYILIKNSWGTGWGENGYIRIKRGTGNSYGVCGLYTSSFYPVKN", "assay": "In vitro labeling reaction of cysteine proteases: papain", "format": "binding", "protocol": "as §1"}, "SENP-1": {"tested_on": "SENP-1", "assay": "In vitro labeling reaction of cysteine proteases: SENP-1", "format": "binding", "protocol": "as §1"}, "ubiquitin ligase E1": {"molecular_target": "T3, ubiquitin ligase E1 (Homo sapiens, UniProt P22314)", "T3 sequence (P22314 1-1058)": "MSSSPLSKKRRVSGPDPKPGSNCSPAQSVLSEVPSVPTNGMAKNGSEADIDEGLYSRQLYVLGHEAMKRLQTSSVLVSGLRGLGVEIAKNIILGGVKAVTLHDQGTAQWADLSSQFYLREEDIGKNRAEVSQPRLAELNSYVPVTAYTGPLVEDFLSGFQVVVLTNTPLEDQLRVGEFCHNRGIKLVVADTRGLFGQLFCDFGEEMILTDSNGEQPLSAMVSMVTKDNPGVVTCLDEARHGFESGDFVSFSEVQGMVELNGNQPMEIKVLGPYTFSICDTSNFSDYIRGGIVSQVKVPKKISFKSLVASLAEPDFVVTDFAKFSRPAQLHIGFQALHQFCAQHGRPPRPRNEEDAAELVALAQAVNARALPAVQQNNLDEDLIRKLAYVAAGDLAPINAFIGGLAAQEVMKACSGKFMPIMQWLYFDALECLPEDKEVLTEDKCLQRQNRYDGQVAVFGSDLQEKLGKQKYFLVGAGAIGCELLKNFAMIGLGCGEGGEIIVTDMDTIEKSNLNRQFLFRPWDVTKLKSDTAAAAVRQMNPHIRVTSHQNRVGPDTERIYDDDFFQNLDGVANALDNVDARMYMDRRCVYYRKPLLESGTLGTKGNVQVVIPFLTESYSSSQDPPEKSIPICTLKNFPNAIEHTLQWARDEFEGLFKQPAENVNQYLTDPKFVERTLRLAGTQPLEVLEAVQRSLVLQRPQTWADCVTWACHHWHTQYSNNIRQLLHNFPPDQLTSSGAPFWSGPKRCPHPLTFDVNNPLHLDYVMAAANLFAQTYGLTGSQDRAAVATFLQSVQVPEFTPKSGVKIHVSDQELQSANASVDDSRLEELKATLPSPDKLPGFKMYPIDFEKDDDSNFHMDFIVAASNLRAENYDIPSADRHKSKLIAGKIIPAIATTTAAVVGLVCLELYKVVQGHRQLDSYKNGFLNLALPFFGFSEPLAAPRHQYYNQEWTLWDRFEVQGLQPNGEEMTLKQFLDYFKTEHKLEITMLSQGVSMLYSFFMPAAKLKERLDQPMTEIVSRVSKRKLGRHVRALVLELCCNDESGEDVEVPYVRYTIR", "assay": "In vitro labeling reaction: ubiquitin ligase E1", "format": "binding", "protocol": "as §1"}, "UCH-L3 [4]": {"molecular_target": "T1, UCH-L3", "assay": "Acid cleavage of the complex between Ubiquitin75-propargylamide and the DUBs", "conditions": "incubation with various acids", "protocol": "To a solution of Ubiquitin75-propargylamide-UCH-L3 complex in PBS (3 mg/mL; 10 μL) was added a 3-fold concentrated solution of the tested acid. The reactions were incubated overnight and analyzed by SDS-PAGE chromatography and/or mass spectrometry."}, "UCH-L3 [5]": {"molecular_target": "T1, UCH-L3", "assay": "Thioradical-mediated cleavage of Ub-Prg-UCH-L3 complex", "conditions": "ethane thiol 50 mM, VA-044 10 mM, three hours", "protocol": "The reaction was incubated for 30 minutes at 37° C. and was buffer exchanged into water by PD-10 column (GE Healthcare) and lyophilized overnight. The resulting white powder was dissolved in PBS (100 μL) and to 90 μL of this solution 10 μL of ethanethiol was added (143 μmole) and VA-044 to a final concentration of 10 mM. The reaction was shaken at 37° C. for three hours prior to LC-MS analysis.\nTo a solution of Ub-prg-UCH-L3 complex in PBS (0.5 mg/mL; 80 μL) various amounts of thiol were added to the final concentrations indicated. Radical initiator VA-044 was added at the concentrations indicated and the reaction was shaken at 37° C. for 3 hours after which the reactions were analysed by non-reducing SDS-PAGE."}},
  "note": "Primed or numbered codes have the meaning given here. PEG4′ = not defined here; PRG = propargyl",
  "data": [
    {"substance": "TMR-Ub-Prg: N-terminally tetramethylrhodamine (TMR) labeled analogue of Ub-Prg", "values": [
      {"measurement": "labeling of active DUBs in lysates at endogenous levels", "setting": "DUBs in cell lysates", "value": "clear labeling results"},
      {"measurement": "reaction with DUB mutants, active site cysteine mutated to serine", "setting": "[1]", "value": "failed to react"}
    ]},
    {"substance": "Cy5-PEG4-YQEQTG-PRG ({Cy5-PEG4′}-YQEQTG-{PRG}) [SUMO1, truncated fluorescent C-terminal propargylated SUMO peptide, C-terminus of SUMO-1]", "values": [
      {"measurement": "selective capturing / binding of SENPs", "setting": "[2]", "value": "selective binding"},
      {"measurement": "binding to SENPs denatured prior to addition of the peptides", "setting": "[2]", "value": "completely abolishes binding"}
    ]},
    {"substance": "Cy5-PEG4-FQQQTG-PRG ({Cy5-PEG4′}-FQQQTG-{PRG}) [SUMO2,3, truncated fluorescent C-terminal propargylated SUMO peptide, C-termini of SUMO-2 and SUMO-3]", "values": [
      {"measurement": "selective capturing / binding of SENPs", "setting": "[2]", "value": "selective binding"},
      {"measurement": "binding to SENPs denatured prior to addition of the peptides", "setting": "[2]", "value": "completely abolishes binding"}
    ]},
    {"substance": "Ubiquitin75-propargylamide [Ub-Prg]", "values": [
      {"measurement": "bond formation with UCH-L3, stable to denaturing LC-MS and denaturing SDS-PAGE", "setting": "UCH-L3 [3]; 1.2 molar equivalents, 37 °C, 30 minutes", "value": "forms a bond with UCH-L3"},
      {"measurement": "reactivity with UCH-L3 after pre-treatment with iodoacetamide", "setting": "UCH-L3 [3]; UCH-L3 pre-treated with general alkylating agent iodoacetamide", "value": "abolished all reactivity"},
      {"measurement": "complex formation with radical scavenger", "setting": "UCH-L3 [3]; presence of excess radical scavenger", "value": "complex formation"},
      {"measurement": "reaction in vitro with cysteine protease DUBs", "setting": "cysteine protease DUBs", "value": "react in vitro with all cysteine protease DUBs tested"},
      {"measurement": "reaction in vitro with cysteine protease DUBs", "setting": "cysteine protease DUBs; listed as Ubiquitin-propargyl", "value": "reacts with all classes of cysteine deubiquitinating enzymes"},
      {"measurement": "reactivity towards papain", "setting": "papain", "value": "unreactive"},
      {"measurement": "reactivity towards SENP-1", "setting": "SENP-1", "value": "unreactive"},
      {"measurement": "reactivity towards ubiquitin ligase E1", "setting": "ubiquitin ligase E1", "value": "no reactivity"},
      {"measurement": "reaction with DUB mutants, active site cysteine mutated to serine", "setting": "[1]", "value": "abolished binding"},
      {"measurement": "acid lability of complex with UCH-L3", "setting": "UCH-L3 [4]", "value": "cleavage of the complex"},
      {"measurement": "thioradical treatment of purified complex with UCH-L3", "setting": "UCH-L3 [5]", "value": "cleavage was observed"}
    ]}
  ]
}
